For series [1], the system named is humans. As to conditions: cited from earlier work.
Series [2] deals with T-lymphocytes and natural killer cells. As to conditions: humans, 200 μg of selenium a day for eight weeks; cited from earlier work.
The conditions of series [3]: in vivo; cited from earlier work.
Series [4] deals with various experimental animals. The note with it: cited from earlier work.
Series [5] has as its system mice. The note with it: cited from earlier work.
The subject of series [6] is guinea pigs. As to conditions: peroral administration; cited from earlier work.
For series [7] the following is noted: oral administration of 1 mg of sodium selenite; cited from earlier work.
Series [8] has as its system rabbits. As to conditions: cited from earlier work.
Series [9] concerns rats. As to conditions: intravenous administration; cited from earlier work.

Read-outs that look alike come from different tables or passages of the source.

Take `[Se]` [Selenium]: the “Recommended maximum single oral dose” value in series [1] (in vivo, po) was “at most 50 μg of selenium/kg BW”. In [1] (in vivo), the “Dosage seen as harmless” value is listed as “up to 500 μg of selenium a day”, the “Maximum safe ingestion over a longer time frame (WHO 1996)” value is recorded as 400 μg of selenium a day, the “Recommended maximum dose for long-term use” value was “at most 5 μg of selenium/kg BW” and the “Selenium content of whole blood from which symptoms can appear” value was ≥ 1000 μg/l of whole blood. Moreover, the “Selenium ingestion in areas with chronic selenium poisonings” value in series [1] (in vivo) is recorded as 3-7 mg of selenium a day. Besides, where the note is “concluded from the results”, the “Selenium substitution required (long-term, continuous)” value is 1000 µg/day. Further, the Tendency towards infection entry (higher versus reduced selenium level) is “reduced tendency towards infection”. For the same compound, under “human, in vivo”, the “Selenium level in the serum” value is reported as “rose up into the reference range” and the “Selenium whole blood levels” value is listed as “rose only to just below the reference range”. In addition, the “Formation of the interleukin-2 receptor, lymphocyte proliferation, cell-destroying effect of T-lymphocytes and natural killer cells” value in [2] was “increases”. In addition, in series [3], the “Portion of selenium taken in with food that leaves the organism renally” value was 50-70%.
As for `O=[Se](O)O` [sodium selenite], in series [4], the Acute toxicity is on record as 1-5 mg of selenium per kg BW. Further, in series [1] (four persons, 2 mg selenium a day for 20-40 days), the “Indications of selenium poisoning” value was “did not result in any indications of selenium poisoning”. In addition, the Chronic toxicity in [1] (in vivo) is given as 3-7 mg of selenium/day. The “Whole blood concentration at which first symptoms of poisoning manifest” value in series [1] (in vivo) is reported as 1.05 mg of selenium/l whole blood. Further, the “Dosage seen as harmless” value in [1] (long-term use (longer than three months)) is reported as “up to 550 μg of selenium a day”. Besides, the “Symptoms of selenium poisoning” value in [1] (peroral 50 μg selenium per kg bodyweight over one year, patients with neuronal ceroid lipofuscinosis) is “no symptoms of selenium poisoning were observed”. The “Symptoms of chronic poisoning” value in series [1] (person, 2 mg sodium selenite (900 μg selenium) daily for more than two years) is “fingernails were thickened and brittle”. The Symptoms of poisoning result in [1] (person, approx. 27 mg selenium a day for approx. two months) is “suffered from lassitude, nausea, vomiting, depression, bad breath, hair loss and nails that fell off”. Also, the LD50 in series [5] (intravenous administration) is given as 2.2 mg of selenium/kg BW; in series [5] (peroral administration), 3.2-3.5 mg/kg BW; in [6] it was 2.3 mg/kg BW; in [8] (intravenous administration), 0.9 mg/kg BW; in series [8] (peroral administration) it was 2.25 mg/kg BW; in series [9] it was 5.7 mg/kg BW. For the same compound, the “Absorption, average portion” value in series [7] is listed as 62±14%.

These data come from patent US9277761B2, “Nutrition trace element composition” (priority 2003, dated 2016).
